Measured values taken from patent US20250059174A1, “Pharmaceutical Compounds and Compositions as C-Kit Kinase Inhibitors” (Enanta Pharmaceuticals, Inc., priority 2023, published 2025).

Legend:
M-07e cells = assay: M-07e cellular assay (SCF-mediated cell proliferation); type: cell-based; details: Homo sapiens, 72 hours, CellTiter Glo
How it was run: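 CellTiter Glo luminescence after 72 h compound exposure in SCF (EC90)-stimulated M-07e cells expressing endogenous human c-KIT.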

[1] = molecular target: Recombinant human c-KIT kinase (Homo sapiens (Human), UniProt P10721); assay: c-KIT kinase chemiluminescence assay (ADP-Glo); type: biochemical; details: ATP 50 μM
How it was run: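 Recombinant human c-KIT preincubated 30 min at RT in 40 mM Tris pH 7.5, 20 mM MgCl2, 0.1 mg/mL BSA, 50 μM DTT, then reacted 2 h at RT with ATP and polyEY substrate. ADP-Glo luminescence readout; activity normalized to high/low controls, IC50 and Hill coefficient from inhibitor-versus-normalized-response fit.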

Sequence of Recombinant human c-KIT kinase (P10721 26-976): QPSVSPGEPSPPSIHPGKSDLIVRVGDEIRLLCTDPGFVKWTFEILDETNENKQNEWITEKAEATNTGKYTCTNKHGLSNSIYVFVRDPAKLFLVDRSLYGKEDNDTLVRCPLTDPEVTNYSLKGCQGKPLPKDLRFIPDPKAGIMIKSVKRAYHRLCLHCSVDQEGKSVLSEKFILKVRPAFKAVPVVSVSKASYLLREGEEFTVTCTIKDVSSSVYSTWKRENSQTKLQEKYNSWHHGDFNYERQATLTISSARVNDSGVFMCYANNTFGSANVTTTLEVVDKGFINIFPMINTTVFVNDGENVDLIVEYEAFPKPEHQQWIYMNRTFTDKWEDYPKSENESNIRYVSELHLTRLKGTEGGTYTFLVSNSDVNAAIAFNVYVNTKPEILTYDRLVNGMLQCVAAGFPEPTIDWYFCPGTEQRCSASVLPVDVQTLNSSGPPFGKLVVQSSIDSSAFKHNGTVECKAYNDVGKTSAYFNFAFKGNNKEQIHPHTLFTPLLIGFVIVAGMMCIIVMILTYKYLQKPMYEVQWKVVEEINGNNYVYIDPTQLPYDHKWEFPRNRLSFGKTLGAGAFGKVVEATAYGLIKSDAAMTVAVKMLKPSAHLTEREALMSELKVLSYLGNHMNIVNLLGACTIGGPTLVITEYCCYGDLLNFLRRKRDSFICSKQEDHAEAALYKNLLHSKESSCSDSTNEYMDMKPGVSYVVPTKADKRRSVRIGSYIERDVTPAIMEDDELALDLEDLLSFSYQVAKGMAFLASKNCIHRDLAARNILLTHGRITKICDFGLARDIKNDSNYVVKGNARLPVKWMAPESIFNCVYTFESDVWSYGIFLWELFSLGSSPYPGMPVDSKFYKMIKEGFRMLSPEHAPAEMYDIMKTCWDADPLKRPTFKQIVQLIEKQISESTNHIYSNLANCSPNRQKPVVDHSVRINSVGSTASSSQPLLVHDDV

IC50 [1] [µM] | SMILES | EC50 (M-07e cells) [µM]
0.1 to 1 | Cc1ccc(-c2noc([C@H]3C[C@@H]3F)n2)cc1NC(=O)c1cnn2ccc(N3CC[C@@H](N)C3)cc12 [Example 197] | < 0.1
< 0.1 | Cc1ccc(-c2noc([C@H]3C[C@@H]3F)n2)cc1NC(=O)c1cnn2ccc(N3CC[C@H](N)C3)cc12 [Example 198] | 0.1 to 1
< 0.1 | Cc1ccc(-c2noc([C@H]3C[C@@H]3F)n2)cc1NC(=O)c1cnn2ccc(N3C[C@H]4C[C@@H]3CO4)cc12 [Example 199] | < 0.1
< 0.1 | Cc1ccc(-c2noc([C@H]3C[C@@H]3F)n2)cc1NC(=O)c1cnn2ccc(N3C[C@@H]4C[C@H]3CO4)cc12 [Example 200] | < 0.1
< 0.1 | Cc1ccc(-c2noc([C@H]3C[C@@H]3F)n2)cc1NC(=O)c1cnn2ccc(N3CCCC4(COC4)C3)cc12 [Example 201] | < 0.1
0.1 to 1 | Cc1ccc(-c2noc([C@H]3C[C@@H]3F)n2)cc1NC(=O)c1cnn2ccc(N3CC4(CN(C)C4)C3)cc12 [Example 202] | 0.1 to 1
< 0.1 | Cc1ccc(-c2noc([C@H]3C[C@@H]3F)n2)cc1NC(=O)c1cnn2ccc(N3CC[C@H](N(C)C(=O)OC(C)(C)C)C3)cc12 [Example 203] | 0.1 to 1
< 0.1 | CN[C@H]1CCN(c2ccn3ncc(C(=O)Nc4cc(-c5noc([C@H]6C[C@@H]6F)n5)ccc4C)c3c2)C1 [Example 205] | 0.1 to 1
0.1 to 1 | Cc1ccc(-c2noc([C@H]3C[C@@H]3F)n2)cc1NC(=O)c1cnn2cc(F)c(N3CC4(COC4)C3)cc12 [Example 206] | 0.1 to 1
< 0.1 | Cc1ccc(-c2noc([C@H]3C[C@@H]3F)n2)cc1NC(=O)c1cnn2ccc(N3CC4(CN(C(=O)OC(C)(C)C)C4)C3)cc12 [Example 207] | 0.1 to 1
0.1 to 1 | Cc1ccc(-c2noc([C@H]3C[C@@H]3F)n2)cc1NC(=O)c1cnn2ccc(N3CC(C(=O)OC(C)(C)C)C3)cc12 [Example 208] | 0.1 to 1
0.1 to 1 | Cc1ccc(-c2noc([C@H]3C[C@@H]3F)n2)cc1NC(=O)c1cnn2ccc(N3CC[C@H]3C(=O)OC(C)(C)C)cc12 [Example 209] | 0.1 to 1
0.1 to 1 | Cc1ccc(-c2noc([C@H]3C[C@@H]3F)n2)cc1NC(=O)c1cnn2ccc(N3CC4CCC3CN4C(=O)OC(C)(C)C)cc12 (some centres unmarked) [Example 210] | 0.1 to 1
< 0.1 | Cc1ccc(-c2noc([C@H]3C[C@@H]3F)n2)cc1NC(=O)c1cnn2ccc(N3CC4(CNC4)C3)cc12 [Example 211] | 0.1 to 1
< 0.1 | Cc1ccc(-c2noc([C@H]3C[C@@H]3F)n2)cc1NC(=O)c1cnn2ccc(N3CC4(CN(CC(F)F)C4)C3)cc12 [Example 212] | < 0.1
< 0.1 | Cc1ccc(-c2noc([C@H]3C[C@@H]3F)n2)cc1NC(=O)c1cnn2ccc(N3CC4(C3)CC(F)(F)C4)cc12 [Example 213] | < 0.1
< 0.1 | Cc1ccc(-c2noc([C@H]3C[C@@H]3F)n2)cc1NC(=O)c1cnn2ccc(N3CCO[C@H](C)C3)cc12 [Example 214] | < 0.1
< 0.1 | Cc1ccc(-c2noc([C@H]3C[C@@H]3F)n2)cc1NC(=O)c1cnn2ccc(N3CCO[C@@H](C)C3)cc12 [Example 215] | < 0.1
< 0.1 | Cc1ccc(-c2noc([C@H]3C[C@@H]3F)n2)cc1NC(=O)c1cnn2ccc(N3CCC4(C3)CC4(F)F)cc12 (some centres unmarked) [Example 216] | < 0.1
< 0.1 | Cc1ccc(-c2noc([C@H]3C[C@@H]3F)n2)cc1NC(=O)c1cnn2ccc(N3CC4(C3)CC4(F)F)cc12 [Example 217] | < 0.1
0.1 to 1 | CC(=O)N1CC(Oc2ccn3ncc(C(=O)Nc4cc(-c5noc([C@H]6C[C@@H]6F)n5)ccc4C)c3c2)C1 [Example 218] | 0.1 to 1
< 0.1 | Cc1ccc(-c2noc([C@H]3C[C@@H]3F)n2)cc1NC(=O)c1cnn2ccc(OC3COC3)cc12 [Example 219] | < 0.1
< 0.1 | Cc1ccc(-c2noc([C@H]3C[C@@H]3F)n2)cc1NC(=O)c1cnn2ccc(O[C@@H]3CCOC3)cc12 [Example 220] | 0.1 to 1
< 0.1 | Cc1ccc(-c2noc([C@H]3C[C@@H]3F)n2)cc1NC(=O)c1cnn2ccc(O[C@H]3CCOC3)cc12 [Example 221] | 0.1 to 1
< 0.1 | Cc1ccc(-c2noc([C@H]3C[C@@H]3F)n2)cc1NC(=O)c1cnn2ccc(N3CC(F)(F)C3)cc12 [Example 222] | 0.1 to 1
0.1 to 1 | Cc1ccc(-c2noc([C@H]3C[C@@H]3F)n2)cc1NC(=O)c1cnn2ccc(N3CC(F)(C(F)(F)F)C3)cc12 [Example 223] | 0.1 to 1

IC50 [1] [µM] | SMILES | EC50 (M-07e cells) [µM]
< 0.1 | Cc1ccc(-c2noc([C@H]3C[C@@H]3F)n2)cc1NC(=O)c1cnn2ccc(N3C[C@@H](F)[C@@H]3C)cc12 [Example 224] | < 0.1
< 0.1 | Cc1ccc(-c2noc([C@H]3C[C@@H]3F)n2)cc1NC(=O)c1cnn2ccc(N3CC(C(F)(F)F)C3)cc12 [Example 225] | 0.1 to 1
< 0.1 | COC1(OC)CC2(CN(c3ccn4ncc(C(=O)Nc5cc(-c6noc([C@H]7C[C@@H]7F)n6)ccc5C)c4c3)C2)C1 [Example 226] | < 0.1
< 0.1 | Cc1ccc(-c2noc([C@H]3C[C@@H]3F)n2)cc1NC(=O)c1cnn2ccc(N3CC4(CCC4)C3)cc12 [Example 227] | 0.1 to 1
< 0.1 | Cc1ccc(-c2noc([C@H]3C[C@@H]3F)n2)cc1NC(=O)c1cnn2ccc(N3CC4CC3C4(C)C)cc12 (some centres unmarked) [Example 228] | 0.1 to 1
< 0.1 | Cc1ccc(-c2noc([C@H]3C[C@@H]3F)n2)cc1NC(=O)c1cnn2ccc(N3CCN(CC(F)(F)F)[C@H](C)C3)cc12 [Example 230] | < 0.1
< 0.1 | Cc1ccc(-c2noc([C@H]3C[C@@H]3F)n2)cc1NC(=O)c1cnn2ccc(N3CC4(CC(=O)C4)C3)cc12 [Example 231] | < 0.1
< 0.1 | Cc1ccc(-c2noc([C@H]3C[C@@H]3F)n2)cc1NC(=O)c1cnn2ccc(N3CC4(C3)CC(O)(C(F)F)C4)cc12 [Example 232] | < 0.1
< 0.1 | Cc1ccc(-c2noc([C@H]3C[C@@H]3F)n2)cc1NC(=O)c1cnn2ccc(N3CC4(C3)CC(O)(C(F)(F)F)C4)cc12 [Example 233] | < 0.1
< 0.1 | CC(=O)N1CCN(c2ccn3ncc(C(=O)Nc4cc(-c5noc([C@H]6C[C@@H]6F)n5)ccc4C)c3c2)C[C@H]1C [Example 234] | < 0.1
> 1 | Cc1ccc(-c2noc([C@H]3C[C@@H]3F)n2)cc1NC(=O)c1cnn2ccc(N3CC4(CCN4C(=O)OC(C)(C)C)C3)cc12 [Example 235] | > 1
0.1 to 1 | Cc1ccc(-c2noc([C@H]3C[C@@H]3F)n2)cc1NC(=O)c1cnn2ccc(-n3cc(NC(=O)OC(C)(C)C)cn3)cc12 [Example 236] | 0.1 to 1
< 0.1 | Cc1ccc(-c2noc([C@H]3C[C@@H]3F)n2)cc1NC(=O)c1cnn2ccc(-n3cc(N)cn3)cc12 [Example 237] | 0.1 to 1
< 0.1 | Cc1ccc(-c2noc([C@H]3C[C@@H]3F)n2)cc1NC(=O)c1cnn2ccc(Nc3cn[nH]c3)cc12 [Example 238] | < 0.1
< 0.1 | Cc1ccc(-c2noc([C@H]3C[C@@H]3F)n2)cc1NC(=O)c1cnn2ccc(N3CC4(CCN4)C3)cc12 [Example 239] | 0.1 to 1
< 0.1 | CCC1(O)CC2(CN(c3ccn4ncc(C(=O)Nc5cc(-c6noc([C@H]7C[C@@H]7F)n6)ccc5C)c4c3)C2)C1 [Example 240] | < 0.1
< 0.1 | Cc1ccc(-c2noc([C@H]3C[C@@H]3F)n2)cc1NC(=O)c1cnn2ccc(N3CC4(C3)CN(S(C)(=O)=O)C4)cc12 [Example 241-1] | < 0.1
< 0.1 | Cc1ccc(-c2noc([C@H]3C[C@@H]3F)n2)cc1NC(=O)c1cnn2ccc(N3CC4(COC(C)(C)OC4)C3)cc12 [Example 241-2] | > 1
< 0.1 | Cc1ccc(-c2noc([C@H]3C[C@@H]3F)n2)cc1NC(=O)c1cnn2ccc(N3CC(CO)(CO)C3)cc12 [Example 241-3] | < 0.1
< 0.1 | Cc1ccc(-c2noc([C@H]3C[C@@H]3F)n2)cc1NC(=O)c1cnn2ccc(N3CCN(C(=O)C(F)(F)F)[C@H](C)C3)cc12 [Example 241-4] | < 0.1
< 0.1 | Cc1ccc(-c2noc([C@H]3C[C@@H]3F)n2)cc1NC(=O)c1cnn2ccc(N3CCN(C(=O)C4CC4)[C@H](C)C3)cc12 [Example 241-5] | < 0.1
< 0.1 | CC(=O)N1CCN(c2ccn3ncc(C(=O)Nc4cc(-c5noc([C@H]6C[C@@H]6F)n5)ccc4C)c3c2)CC1 [Example 241-6] | < 0.1
0.1 to 1 | Cc1ccc(-c2noc([C@H]3C[C@@H]3F)n2)cc1NC(=O)c1cnn2ccc(N3CCN(C(=O)OC(C)(C)C)[C@H](C)C3)cc12 [Example 241-7] | < 0.1
< 0.1 | Cc1ccc(-c2noc([C@H]3C[C@@H]3F)n2)cc1NC(=O)c1cnn2ccc(NCC3(CO)COC3)cc12 [Example 241-8] | < 0.1
0.1 to 1 | Cc1ccc(-c2noc([C@H]3C[C@@H]3F)n2)cc1NC(=O)c1cnn2ccc(NCC3(C(=O)OC(C)(C)C)COC3)cc12 [Example 241-9] | 0.1 to 1

SMILES | IC50 [1] [µM] | EC50 (M-07e cells) [µM]
Cc1ccc(-c2noc([C@H]3C[C@@H]3F)n2)cc1NC(=O)c1cnn2ccc(N3C4CCC3CC(O)C4)cc12 (some centres unmarked) [Example 204] | < 0.1 | < 0.1
